How the values were obtained:
rabbit femoral arteries = details: 10 mM, one minute modification, two-minute perfusion, versus control, FIG. 3
Excerpt: (§1) Bovine carotid and rabbit femoral arteries were harvested and placed into a container with DMEM. The arteries were then transferred to a petri dish with DPBS, and excess fat was removed from the vessel exterior with the aid of a scalpel and forceps. The vessel was then filleted with a pair of surgical scissors to expose the luminal surface. The lumen of the bovine vessel was scrape damaged with a spatula to simulate the damage that would occur during a vascular procedure in which plaque is scrapped off. The vessel was utilized without further preparation. The vessels were loaded into a tubular perfusion chamber. The wash medium used was DMEM with a 4.5 g/dl of bovine serum albumin [BSA] (Sigma). A syringe pump (Harvard Apparatus) was used to provide flow and mimic the arterial shear conditions that would be experienced in vivo. Initially, the vessel was perfused for five minutes with the wash medium. At this point, 1 mL of a 10 mM NHS-PEG-Biotin solution was injected into the chamber and incubated with the vessel for modification for one minute. Again, the wash medium was perfused for five minutes. Next, a 10 mL solution of NeutrAvidin-coated microspheres (Molecular Probes) at a concentration of 7.28×10^6 particles/mL was perfused over the modified surface for 2 minutes. The vessel was washed for five minutes one additional time and then removed from the chamber. Finally, the vessel was analyzed by counting the number of microspheres bound per mm^2 of tissue using epi-fluorescence microscopy. This same protocol was repeated for the control, with the vessel being incubated with DPBS alone and not the NHS-PEG-Biotin as described previously.

Bovine carotid arteries = test system: Bovine carotid arteries
Excerpt: as §1

NHS-PEG-Biotin
number of microspheres bound per mm^2 of tissue (rabbit femoral arteries): far greater than the control vessels | number of microspheres bound per mm^2 of tissue (Bovine carotid arteries; bovine arteries, 10 mM, one minute modification, two-minute perfusion, versus control, FIG. 2): far greater than the control vessels | binding of the microspheres to the modified versus unmodified surfaces (fluorescent micrographs) (Bovine carotid arteries; carotid artery segments, 10 mM NHS-PEG-Biotin, one minute, FIGS. 1A and 1B): microspheres have attached
